Earlier results, collected in US20240132431A1, “METHOD FOR ALKYLATING ACIDIC FUNCTIONAL GROUP” (Chugai Seiyaku Kabushiki Kaisha, priority 2021, published 2024).
Like-named read-outs stand apart in the source and are kept apart here.

Settings: cited from earlier work; for Base/pKBH^+ (CH3CN): pKa of conjugate acid of the base in CH3CN; for Base/pKBH+ (CH3CN): transcribed from the Aldrich web site for phosphazene bases
[1] = Table 3-5-3, from Aldrich web site and Chem. Eur. J. 2021, 27, 4216-4229
[2] = Table 3-5-1, transcribed from Aldrich web site
[3] = Table 3-5-2, transcribed from Aldrich web site

## C1CN=C2NCCCN2C1 [TBD, 1,5,7-triazabicyclo[4.4.0]dec-5-ene]
[1]
  Base/pKBH^+ (CH3CN): (26.0)

## CCN=P(N=P(N(C)C)(N(C)C)N(C)C)(N(C)C)N(C)C [P2Et, 1-Ethyl-2,2,4,4,4-pentakis(dimethylamino)-2λ^5,4λ^5-catenadi(phosphazene)]
Table 2-2
  Base/pKBH+ (CH3CN): 32.9
Table 3-1
  Base/pKBH+ (CH3CN): (32.9)
Table 3-3, transcribed from Aldrich web site
  Base/pKBH^+ (CH3CN): (32.9)
[1]
  Base/pKBH^+ (CH3CN): (32.9)

## CN(C)C(=NC(C)(C)C)N(C)C [BTMG, 2-tert-butyl-1,1,3,3-tetramethylguanidine]
[1]
  Base/pKBH^+ (CH3CN): (23.6)

## CC(C)(C)N=P(N1CCCC1)(N1CCCC1)N1CCCC1 [BTPP, tert-Butylimino-tri(pyrrolidino)phosphorane]
[2]
  Base/pKBH^+ (CH3CN): (28.4)
[3]
  Base/pKBH^+ (CH3CN): (28.4)
[1]
  Base/pKBH^+ (CH3CN): (28.4)

## CCN(C(C)C)C(C)C [DIPEA, N,N-Diisopropylethylamine]
Example 3-5-3, Aldrich web site and Chem. Eur. J. 2021, 27, 4216-4229
  pKBH+ value in CH3CN: 18.8
[1]
  Base/pKBH^+ (CH3CN): (18.8)

## CN(C)P(=NC(C)(C)C)(N(C)C)N(C)C [P1tBu, tert-Butylimino-tris(dimethylamino)phosphorane]
Table 2-2
  Base/pKBH+ (CH3CN): 26.9
Table 3-4
  Base/pKBH+ (CH3CN): P1tBu (26.9)
[2]
  Base/pKBH^+ (CH3CN): (26.9)
[3]
  Base/pKBH^+ (CH3CN): (26.9)
[1]
  Base/pKBH^+ (CH3CN): (26.9)

## CN(C)P(=NC(C)(C)C)(N=P(N(C)C)(N(C)C)N(C)C)N(C)C [P2tBu, 1-tert-Butyl-2,2,4,4,4-pentakis(dimethylamino)-2λ^5,4λ^5-catenadi(phosphazene)]
Table 3-1
  Base/pKBH+ (CH3CN): (33.5)
Table 3-4
  Base/pKBH+ (CH3CN): P2tBu (33.5)
